One data set in a line: in vitro. The following applies: human, Caco-2.
Data set [1] is described as follows: Plasma binding by RED device. For all read-outs here: tested at 0.4 µM. In kind it is in vitro ADME, mouse. The following applies: for plasma binding: mice; for f u,plasma %: mouse plasma, RED device, 4 h, 37 °C. The procedure:
(§1) Nonspecific binding in plasma (f u, plasma), microsomes (f u, mic) and hepatocyte (f u, hep) were determined using the method seen in supplemental information (Supplemental Methods). […]
(§2) All validation compounds were incubated at 37 °C over 4 h, and in triplicate. For […]
(§3) plasma stability, 10 mM DMSO solutions of SLM and SLOH were diluted to 40 µM (10% DMSO). Plasma […]
(§4) shaking water bath (60 oscillations/min approx.). The assay was started by addition of 6 µL aliquots to […]
(§5) the plasma (final DMSO incubation concentration 0.1%). […]
(§6) MS/MS. Natural logarithm of peak area ratios (compound peak area normalized by IS peak area) were plotted against time and half-life calculated. […]
(§7) placed into the sample chamber (indicated by the red ring) with 400 µL of PBS into the adjacent chamber.
(§8) The plate was sealed with a self-adhesive lid and incubated at 37 °C on an orbital shaker (1.5 g approx.) for 4 h. Aliquots (100 µL) were removed from each side of the insert, and analyzed after protein precipitation using 4 folds acetonitrile (ACN) containing berberine chloride as internal standard (IS) by LC-MS/MS (Analytical me thod seen below). The experimental procedure outlined in the Thermo Scientific RED device systems brochure was adopted in the present study . […]

A short description of data set [2]: Stability in plasma, microsomes without cofactors and deactivated hepatocytes. It is filed as in vitro ADME. The following applies: ICR/CD-1, mouse and human; all species, 37 °C, more than 4 hours; read-out: half-life elimination (t 1/2) in plasma, microsomes and deactivated hepatocytes. The procedure:
page 4: Supplemental Methods Blood-to-plasma ratio […] and incubated for an hour at 37 OC. At the end of the incubation period, plasma (CP) is separated from […] folds acetonitrile (ACN) containing berberine chloride as internal standard (IS) by LC-MS/MS (Analytical method seen below). The blood cell partitioning was calculated as follows. (1) Plasma, liver microsomes and hepatocyte binding by RED device The stability of the compounds in plasma, liver microsomes and hepatocyte were studied to ensure the reliability of the binding data. Hepatocyte was deactivated by leaving them on a bench for 2 days and going through a freeze thaw cycle thereafter. […] were inactivated. All validation compounds were incubated at 37 °C over 4 h, and in triplicate. For […] […] Natural logarithm of peak area ratios (compound peak area normalized by IS peak area) were plotted against time and half-life calculated. […] Aliquots (100 µL) were removed from each side of the insert, and analyzed after protein precipitation using 4 folds acetonitrile (ACN) containing berberine chloride as internal standard (IS) by LC-MS/MS (Analytical me thod seen below). […] In vitro stability in liver microsomes and hepatocytes Half-life (t1/2) of SLM or SLOH in liver microsomes was determined in duplicate. […]

A further data set relates to Aβ(1–40). The arrangement: method as in PMID 22086555. The following applies: cited from earlier work.
Data set [3] is described as follows: Plasma binding by RED device. For all read-outs here: tested at 0.4 µM. In kind it is in vitro ADME, human. The following applies: for plasma binding: human; for f u,plasma %: human plasma, RED device, 4 h, 37 °C. The procedure:
as §1, §2, §3, §4, §5, §6, §7, §8

A short description of data set [4]: Hepatocyte binding by RED device. It is filed as in vitro ADME. The procedure: The blood cell partitioning was calculated as follows. […] Plasma, liver microsomes and hepatocyte binding by RED device The stability of the compounds in plasma, liver microsomes and hepatocyte were studied to ensure the reliability of the binding data. Hepatocyte was deactivated by leaving them on a bench for 2 days and going through a freeze thaw cycle thereafter. […] Natural logarithm of peak area ratios (compound peak area normalized by IS peak area) were plotted against time and half-life calculated. The spiked plasma solutions, microsomes and hepatocytes (400 µL) after observing stability were placed into the sample chamber (indicated by the red ring) with 400 µL of PBS into the adjacent chamber. […] The experimental procedure outlined in the Thermo Scientific RED device systems brochure was adopted in the present study . The several positive controls were assayed (Table S4). […] For control experiments, NADPH, UDPGA and/or liver microsomes were omitted from these incubations. […] InVitroGROTM HT Medium was used for thawing suspension of cryopreserved hepatocytes. Incubations were conducted in a 96-well flat-bottom polystyrene plate in duplicate. […] 60, 90, 120 minutes by the addition of 4 folds ACN containing berberine chloride as internal standard 5

The target in a further data set is P-gp (Homo sapiens, UniProt P08183). Kind of data set: Efflux transporter identification in Caco-2 cell with P-gp specific inhibitors. The following applies: efflux ratio reduced by PSC833 and verapamil, concentration-dependent. For orientation: Caco-2 cells form a polarised layer with tight junctions and transporters.
Setting [5] is: human deactivated hepatocytes 0.5 million cells/mL.
Where [6] appears, read: mouse deactivated hepatocytes 0.5 million cells/mL.

Some results are limits rather than exact numbers.

P-gp, sequence (P08183 whole entry): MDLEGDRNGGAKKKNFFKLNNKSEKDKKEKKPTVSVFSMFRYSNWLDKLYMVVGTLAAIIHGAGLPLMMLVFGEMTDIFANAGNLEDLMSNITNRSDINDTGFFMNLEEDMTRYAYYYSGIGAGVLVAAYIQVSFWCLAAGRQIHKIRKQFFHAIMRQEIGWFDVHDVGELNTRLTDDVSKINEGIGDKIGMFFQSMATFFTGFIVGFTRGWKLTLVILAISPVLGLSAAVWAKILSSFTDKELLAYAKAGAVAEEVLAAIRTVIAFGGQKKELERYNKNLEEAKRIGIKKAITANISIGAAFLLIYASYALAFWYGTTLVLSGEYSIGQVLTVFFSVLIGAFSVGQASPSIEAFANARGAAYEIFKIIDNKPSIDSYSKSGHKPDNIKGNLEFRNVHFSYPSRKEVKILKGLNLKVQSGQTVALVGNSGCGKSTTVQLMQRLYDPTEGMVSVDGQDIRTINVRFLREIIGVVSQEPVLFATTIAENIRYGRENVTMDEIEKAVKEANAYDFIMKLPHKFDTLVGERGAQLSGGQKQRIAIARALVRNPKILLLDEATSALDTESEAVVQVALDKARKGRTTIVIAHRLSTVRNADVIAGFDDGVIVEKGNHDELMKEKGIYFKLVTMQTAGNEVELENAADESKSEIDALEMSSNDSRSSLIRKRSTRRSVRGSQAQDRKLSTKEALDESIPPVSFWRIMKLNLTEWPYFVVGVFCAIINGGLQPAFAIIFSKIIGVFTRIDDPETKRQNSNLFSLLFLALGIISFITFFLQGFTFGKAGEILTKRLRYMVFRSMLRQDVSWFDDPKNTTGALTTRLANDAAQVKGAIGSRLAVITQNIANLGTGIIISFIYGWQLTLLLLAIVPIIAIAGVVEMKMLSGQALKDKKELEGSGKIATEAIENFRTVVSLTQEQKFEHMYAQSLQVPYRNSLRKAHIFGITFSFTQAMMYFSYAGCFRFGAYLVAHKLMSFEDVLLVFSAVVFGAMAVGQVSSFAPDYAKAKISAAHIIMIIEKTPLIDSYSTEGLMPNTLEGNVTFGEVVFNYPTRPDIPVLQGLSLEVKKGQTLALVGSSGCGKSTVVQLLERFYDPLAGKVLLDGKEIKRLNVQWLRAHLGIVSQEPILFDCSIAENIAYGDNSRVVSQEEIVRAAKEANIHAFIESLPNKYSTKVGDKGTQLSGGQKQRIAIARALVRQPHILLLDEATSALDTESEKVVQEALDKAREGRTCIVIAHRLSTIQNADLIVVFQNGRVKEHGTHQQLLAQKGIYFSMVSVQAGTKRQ

By Papp A→B is commonly meant how fast a substance crosses the layer from the apical side. The term efflux ratio denotes a quotient of directional permeabilities that is used to spot active efflux. In the case of `COCCOCCn1c2ccccc2c2cc(/C=C/c3cc[n+](C)c4ccccc34)ccc21.[I-]` [SLM, (E)-4-(2-(9-(2-(2-methoxyethoxy)ethyl)-9H-carbazol-3-yl)-vinyl)-1-methyl-quinolin-1-iumiodide], in the data set “in vitro”, the Papp A→B at 1 μM is 2.5 ×10⁻⁶ cm/s and the efflux ratio at 1 μM worked out at 34. Moreover, in data set [1], the plasma binding is given as above 95% and the “f u,plasma %” value was 1.70 ± 0.380^$ %. The half-life in data set [2] was above 24 h. For the same compound, the “affinity for Aβ(1–40)” value in the data set with Aβ(1–40) is recorded as “reasonably good affinity”. Also, in data set [3], the plasma binding was above 95% and the “f u,plasma %” value is given as 0.100 ± 0.0100%. Moreover, in data set [4] (setting [5]), the “f u,hep, %” value is reported as 11.0 ± 0.870^$$ %. Moreover, in data set [4] (setting [6]), the “f u,hep, %” value was found to be 15.0 ± 4.60%. Moreover, at P-gp, the P-gp substrate identification entry is listed as “substrates”.
Compound `COCCOCCn1c2ccccc2c2cc(/C=C/c3cc[n+](CCO)c4ccccc34)ccc21` [SLOH, (E)-1-(2-hydroxyethyl)-4-(2-(9-(2-(2-metho-xyethoxy)-ethyl)-9H-carbazol-3-yl)vinyl) quinolin-1-ium chloride] registered a Papp A→B at 1 μM in “in vitro” of 2.7 ×10⁻⁶ cm/s. In “in vitro”, the efflux ratio at 1 μM was 9. Also, the plasma binding in data set [1] and in data set [3] was above 95% throughout. The “f u,plasma %” value is 3.50 ± 0.700^$ % in data set [1] and 0.170 ± 0.0400% in data set [3]. Moreover, in data set [2], the half-life is above 24 h. Moreover, in the data set with Aβ(1–40), the “affinity for Aβ(1–40)” value was “reasonably good affinity”. In addition, the “f u,hep, %” value is given as 5.50 ± 0.730^$$ % in data set [4] (setting [5]) and 16.0 ± 5.50% in data set [4] (setting [6]). Besides, at P-gp, the P-gp substrate identification entry is given as “substrates”.

Values taken from PMC5703966, “Systemic clearance and brain distribution of carbazole-based cyanine compounds as Alzheimer’s disease drug candidates” (Scientific Reports, 2017).
